Measured values: BigSolDB 2.1

COc1ccccc1OCCNCC(O)COc1cccc2[nH]c3ccccc3c12 (stereo not given)
Conditions	solubility (mole fraction)
in PEG-400, 288.15 K	0.0501
in PEG-400, 293.15 K	0.0539
in PEG-400, 298.15 K	0.0582
in PEG-400, 303.15 K	0.062
in PEG-400, 308.15 K	0.0661

solubility (mole fraction)
Conditions	288.15 K	293.15 K	298.15 K	303.15 K	308.15 K
in THF	0.0211	0.0235	0.0261	0.0291	0.0321
in acetone	0.0125	0.0147	0.0173	0.0201	0.023
in dichloromethane	0.00254	0.00334	0.00429	0.00556	0.00722
in ethanol	0.000677	0.000846	0.00106	0.00128	0.00158
in ethyl acetate	0.0015	0.00189	0.00239	0.00292	0.00362
in glycerin	0.000273	0.000307	0.000342	0.00038	0.000421
in isopropanol	0.000421	0.000555	0.000726	0.000947	0.00124
in methanol	0.000767	0.000959	0.0012	0.00149	0.00185
in n-butanol	0.000678	0.00079	0.000924	0.00108	0.00125
in n-propanol	0.000634	0.000791	0.000996	0.00122	0.00149
in propylene glycol	0.00138	0.00155	0.00174	0.00193	0.00213
